The subject of assay [1] is Lymphocytic leukaemia P-388 tumour. Put plainly: Anti-tumour activity on Lymphocytic leukaemia P-388 tumour. The assay is classed as in vivo, mice (male; CDF1 strain). To be noted: 5.6 mg/kg, abdominally. The method, then:
Mice (male; CDF1 strain; weight about 22 g; each group consisting of 5 mice) were used as the test animals. Lymphocytic leukaemia P-388 tumour cells (each 1×10^6 cells) were intraperitoneally implanted into each mouse. 24 hours after this, a phosphate buffered physiological solution of sodium chloride (each 0.2 ml) was intraperitioneally injected once into each mouse, a given amount of one substance being contained in each solution so that a different substance is administered to each group of mice. For comparison, a similar phosphate buffered solution of sodium chloride containing mitomycin C was admnistered abdominally to each mouse of a further control group. Table 4 indicates the average survival time in days and T/C (mean value of the survival days of the animals treated with the test compound/mean value of the survival days of the control animals treated with 0.2 ml of the phosphate buffered solution of sodium chloride).

A further assay deals with Sarcoma 180 solid tumour. Put plainly: Therapeutic effect on Sarcoma 180 solid tumour. Format: in vivo, mice (male; ddy-strain). To be noted: 5.6 mg/kg, abdominally, single, day 7. The method, then:
Mice (male; ddy-strain; weight about 20 g; each group consisting of 6 mice) were used as test animals. Sarcoma 180 tumour cells (each 5×10^6cells) were subcutaneously implanted into each mouse at the armpit. 24 hours after this, a phosphate buffered physiological solution of sodium chloride (each 0.2 ml) was intraperitoneally administered to each mouse, a given amount of one of the substances DC-45-A, DC-45-B1 and DC-45-B2 being contained in each solution so that a different substance is administered to each group of mice. The said phosphate buffer contained NaCl (0.8 g/dl), KCl (0.02 g/dl), […] (1.15 g/dl) and KH2 PO4 (0.02 g/dl). For comparison purpose, a similar phosphate buffered solution containing mitomycin C (0.2 ml) was abdominally administered to the mice of another group 24 hours after the implantation of the tumour cells. Table 3 indicates the volume of the tumour (mean value in mm^3) and T/C (mean value; the tumour volume of the animal treated with the test compound/the tumour volume of the control animal treated with 0.2 ml of the phosphate buffered solution of sodium chloride, both being determined 7 days after the implantation.

Take `CO[C@@]12[C@H](COC(N)=O)C3=C(C(=O)C(C)=C(N)C3=O)N1C[C@@H]1N[C@@H]12` [Mitomycin C, mitomycin C]: in assay [1], the Survival days turned out to be 18.0 ± 1.4 days and the “T/C (survival days)” value stood at 1.88. Moreover, in the assay on Sarcoma 180 solid tumour, the “T/C (tumour volume)” value is reported as 0.20 and the “Volume of tumour (mean value)” value is given as 282 mm^3.

Source of the values: patent US4511560A, “Antibiotic substances DC-45, and their use as medicaments” (Kyowa Hakko Kogyo Kabushiki Kaisha, priority 1979, dated 1985).
